Assay results taken from patent US20230329236A1, “HERBICIDAL PYRIMIDINE DERIVATIVES” (MoA Technology Limited, priority 2020, published 2023).

How the values were obtained:
Conditions in all cases: 336 h, Table 3, post-emergence, 14±1 days post application
[1] = test system: Lolium multiflorum (LOLMU); experiment: Post-emergence glasshouse test, visual injury, LOLMU; assay type: in vivo
Method: (§1) Seeds of a variety of test species are grown in a sandy loam soil mixture, Lolium multiflorum (LOLMU), Amaranthus retroflexus (AMARE), Echinochloa crus-gaffi (ECHCG), Veronica persica (VERPE), Glycine max (GLXMA), Oryza sativa (ORYSA), Zea mays (ZEAMX), spring wheat (TRZAS), Ipomoea hederacea (IPOHE), Ipomoea purpurea (PHBPU), Stellaria media (STEME), Solanum nigrum (SOLNI), Digitaria sanguinalis (DIGSA), Setaria italica (SETIT), Alopecurus myosuroides (ALOMY) and Avena fatua (AVEFA).
(§2) After sowing, at growth stage BBCH 12-14 (post-emergence), the plants are sprayed with an aqueous spray solution derived from the formulation of the technical active ingredient in acetone/water (50:50) solution containing 0.5% Tween 20 (polyoxyethlyene sorbitan monolaureate, CAS RN 9005-64-5). The test compounds are applied at the required concentration of active ingredient in g/ha. The test plants are then grown in a glasshouse under controlled environmental conditions and watered regularly as required. After 14±1 days post application (for post-emergence test), the test is evaluated by assessing the percentage damage caused to the plants in comparison with the untreated plots. The biological activities for post-emergence testing are shown below (Table 3 and Table 4) as a % visual injury.

[2] = test system: Echinochloa crus-gaffi (ECHCG); experiment: Post-emergence glasshouse test, visual injury, ECHCG; assay type: in vivo, Echinochloa crus-galli
Method: as §1, §2

Veronica persica (VERPE) = experiment: Post-emergence glasshouse test, visual injury, VERPE; assay type: in vivo
Method: as §1, §2

[3] = test system: Amaranthus retroflexus (AMARE); experiment: Post-emergence glasshouse test, visual injury, AMARE; assay type: in vivo
Method: as §1, §2

`Cc1cc(-c2cnc(NCCc3c(C)noc3C)nc2C(C)(C)C)on1` [Compound 68] was tested, and the pest or weed control at 500 g/ha [1] was 0%, the pest or weed control at 500 g/ha [2] was 0% and the pest or weed control at 500 g/ha (Veronica persica (VERPE)) was 0%. It also gave a pest or weed control at 500 g/ha [3] of 80%.

`Cc1cc(-c2cnc(NC3CCCCC3)nc2C(C)C)on1` [Compound 7] showed a pest or weed control at 125 g/ha [1] of 20%, a pest or weed control at 250 g/ha [1] of 20% and a pest or weed control at 125 g/ha [2] of 80%. It also gave a pest or weed control at 250 g/ha [2] of 100%, a pest or weed control at 125 g/ha (Veronica persica (VERPE)) of 60% and a pest or weed control at 250 g/ha (Veronica persica (VERPE)) of 100%. It also gave a pest or weed control at 125 g/ha [3] of 80% and a pest or weed control at 250 g/ha [3] of 100%.

`Cc1cc(-c2cnc(NCc3cccnc3)nc2C(F)(F)F)on1` [Compound 111] was tested, and the pest or weed control at 125 g/ha [1] was 10%, the pest or weed control at 125 g/ha [2] was 0% and the pest or weed control at 125 g/ha (Veronica persica (VERPE)) was 0%. For the same compound, the pest or weed control at 125 g/ha [3] was 0%.

For `Cc1cc(-c2cnc(N3CCN(c4ncccn4)CC3)nc2C(C)C)on1` [Compound 70], the pest or weed control at 500 g/ha [1] was 0%, the pest or weed control at 500 g/ha [2] was 20% and the pest or weed control at 500 g/ha (Veronica persica (VERPE)) was 0%. It also gave a pest or weed control at 500 g/ha [3] of 80%.

`Cc1cc(-c2cnc(NCc3cccc(Cl)c3)nc2C(C)C)on1` [Compound 117] gave a pest or weed control at 125 g/ha [1] of 30%, a pest or weed control at 125 g/ha [2] of 70% and a pest or weed control at 125 g/ha (Veronica persica (VERPE)) of 70%. It also gave a pest or weed control at 125 g/ha [3] of 70%.

For `COCCNc1ncc(-c2cc(C)no2)c(-c2ccncc2)n1` [Compound 66], the pest or weed control at 500 g/ha [1] was 60%, the pest or weed control at 500 g/ha [2] was 20% and the pest or weed control at 500 g/ha (Veronica persica (VERPE)) was 70%. The pest or weed control at 500 g/ha [3] was 70%.

With `CCNc1ncc(-c2cc(C)no2)c(C(C)C)n1` [Compound 11] the pest or weed control at 250 g/ha [1] was 0%, the pest or weed control at 250 g/ha [2] was 80% and the pest or weed control at 250 g/ha (Veronica persica (VERPE)) was 70%. For the same compound, the pest or weed control at 250 g/ha [3] was 100%.

In the case of `Cc1cc(-c2cnc(N3CCC(C(N)=O)CC3)nc2C(C)(C)C)on1` [Compound 26], the pest or weed control at 500 g/ha [1] is reported as 0%, the pest or weed control at 500 g/ha [2] is reported as 30% and the pest or weed control at 500 g/ha (Veronica persica (VERPE)) is reported as 60%. It also gave a pest or weed control at 500 g/ha [3] of 0%.

With `Cc1cc(-c2cnc(NC(C)C)nc2-c2ccc(C)o2)on1` [Compound 51] the pest or weed control at 500 g/ha [1] was 0%, the pest or weed control at 500 g/ha [2] was 70% and the pest or weed control at 500 g/ha (Veronica persica (VERPE)) was 0%. The pest or weed control at 500 g/ha [3] was 0%.

With `Cc1cc(-c2cnc(NCc3ccc(F)cc3)nc2C(C)(C)C)on1` [Compound 47] the pest or weed control at 500 g/ha [1] was 0%, the pest or weed control at 500 g/ha [2] was 50% and the pest or weed control at 500 g/ha (Veronica persica (VERPE)) was 80%. The pest or weed control at 500 g/ha [3] was 40%.

`Cc1cc(-c2cnc(N3Cc4ccccc4C3=N)nc2C(C)C)on1` [Compound 121] was tested, and the pest or weed control at 125 g/ha [1] was 0%, the pest or weed control at 125 g/ha [2] was 20% and the pest or weed control at 125 g/ha (Veronica persica (VERPE)) was 0%. For the same compound, the pest or weed control at 125 g/ha [3] was 30%.

In the case of `Cc1cc(-c2cnc(NC3CCC3)nc2C(F)(F)F)on1` [Compound 110], the pest or weed control at 125 g/ha [1] is reported as 40%, the pest or weed control at 125 g/ha [2] is reported as 0% and the pest or weed control at 125 g/ha (Veronica persica (VERPE)) is reported as 0%. The pest or weed control at 125 g/ha [3] was 0%.

With `Cc1cc(-c2cnc(NCc3cccnc3)nc2C(C)C)on1` [Compound 28] the pest or weed control at 500 g/ha [1] was 0%, the pest or weed control at 500 g/ha [2] was 70% and the pest or weed control at 500 g/ha (Veronica persica (VERPE)) was 98%. It also gave a pest or weed control at 500 g/ha [3] of 90%.

`Cc1cc(-c2cnc(NCCn3nccc3C)nc2C(C)C)on1` [Compound 41] was tested, and the pest or weed control at 500 g/ha [1] was 30%, the pest or weed control at 500 g/ha [2] was 60% and the pest or weed control at 500 g/ha (Veronica persica (VERPE)) was 50%. For the same compound, the pest or weed control at 500 g/ha [3] was 95%.

Work on `Cc1cc(-c2cnc(N3CCC(C(N)=O)CC3)nc2C2CC2)on1` [Compound 64] yielded a pest or weed control at 500 g/ha [1] of 30%, a pest or weed control at 500 g/ha [2] of 60% and a pest or weed control at 500 g/ha (Veronica persica (VERPE)) of 0%. The pest or weed control at 500 g/ha [3] was 60%.

With `Cc1cc(-c2cnc(NCc3ccncc3)nc2C(C)C)on1` [Compound 18] the pest or weed control at 1000 g/ha ([1]; 1000 g/ha) was 60%, the pest or weed control at 1000 g/ha ([2]; 1000 g/ha) was 30% and the pest or weed control at 1000 g/ha (Veronica persica (VERPE); 1000 g/ha) was 99%. The pest or weed control at 1000 g/ha ([3]; 1000 g/ha) was 90%.

With `Cc1cc(-c2cnc(NCCCN3CCC(C)CC3)nc2-c2ccco2)on1` [Compound 25] the pest or weed control at 500 g/ha [1] was 0%, the pest or weed control at 500 g/ha [2] was 30% and the pest or weed control at 500 g/ha (Veronica persica (VERPE)) was 0%. For the same compound, the pest or weed control at 500 g/ha [3] was 30%.

`Cc1cc(-c2cnc(NC3CCC3)nc2C(C)C)on1` [Compound 14] was tested, and the pest or weed control at 500 g/ha [1] was 50%, the pest or weed control at 500 g/ha [2] was 100% and the pest or weed control at 500 g/ha (Veronica persica (VERPE)) was 100%. The pest or weed control at 500 g/ha [3] was 100%.

`Cc1cc(-c2cnc(NCCN3CCCC3=O)nc2C2CC2)on1` [Compound 30] gave a pest or weed control at 500 g/ha [1] of 0%, a pest or weed control at 500 g/ha [2] of 70% and a pest or weed control at 500 g/ha (Veronica persica (VERPE)) of 0%. It also gave a pest or weed control at 500 g/ha [3] of 60%.

In the case of `CCOCCCNc1ncc(-c2cc(C)no2)c(C(C)(C)C)n1` [Compound 40], the pest or weed control at 500 g/ha [1] is reported as 0%, the pest or weed control at 500 g/ha [2] is reported as 30% and the pest or weed control at 500 g/ha (Veronica persica (VERPE)) is reported as 0%. The pest or weed control at 500 g/ha [3] was 70%.

`Cc1cc(-c2cnc(N3CCN(c4ncccn4)CC3)nc2-c2ccc(C)o2)on1` [Compound 89] gave a pest or weed control at 125 g/ha [1] of 5%, a pest or weed control at 125 g/ha [2] of 0% and a pest or weed control at 125 g/ha (Veronica persica (VERPE)) of 5%. The pest or weed control at 125 g/ha [3] was 0%.

With `Cc1cc(-c2cnc(NCc3ccc(C#N)cc3)nc2C(C)C)on1` [Compound 118] the pest or weed control at 125 g/ha [1] was 0%, the pest or weed control at 125 g/ha [2] was 20% and the pest or weed control at 125 g/ha (Veronica persica (VERPE)) was 95%. It also gave a pest or weed control at 125 g/ha [3] of 80%.

`COCCCNc1ncc(-c2cc(C)no2)c(-c2ccc(C)o2)n1` [Compound 27] gave a pest or weed control at 500 g/ha [1] of 0%, a pest or weed control at 500 g/ha [2] of 20% and a pest or weed control at 500 g/ha (Veronica persica (VERPE)) of 50%. For the same compound, the pest or weed control at 500 g/ha [3] was 70%.

Work on `Cc1cc(-c2cnc(NCc3ccccc3Cl)nc2C(C)C)on1` [Compound 101] yielded a pest or weed control at 62 g/ha [1] of 0%, a pest or weed control at 62 g/ha [2] of 70% and a pest or weed control at 62 g/ha (Veronica persica (VERPE)) of 40%. For the same compound, the pest or weed control at 62 g/ha [3] was 50%.

`Cc1cc(-c2cnc(NC3CCCC3)nc2C2CCC2)on1` [Compound 104] gave a pest or weed control at 125 g/ha [1] of 0%, a pest or weed control at 125 g/ha [2] of 0% and a pest or weed control at 125 g/ha (Veronica persica (VERPE)) of 60%. It also gave a pest or weed control at 125 g/ha [3] of 40%.

With `Cc1cc(-c2cnc(NCc3ccc(Cl)cc3)nc2C(C)C)on1` [Compound 102] the pest or weed control at 62 g/ha [1] was 20%, the pest or weed control at 125 g/ha [1] was 40% and the pest or weed control at 62 g/ha [2] was 80%. For the same compound, the pest or weed control at 125 g/ha [2] was 80%, the pest or weed control at 62 g/ha (Veronica persica (VERPE)) was 80% and the pest or weed control at 125 g/ha (Veronica persica (VERPE)) was 100%. For the same compound, the pest or weed control at 62 g/ha [3] was 98% and the pest or weed control at 125 g/ha [3] was 100%.

Work on `Cc1cc(-c2cnc(NC3CCc4sc(Cl)cc43)nc2C(C)C)on1` (stereo not drawn) [Compound 4] yielded a pest or weed control at 125 g/ha [1] of 0%, a pest or weed control at 125 g/ha [2] of 50% and a pest or weed control at 125 g/ha (Veronica persica (VERPE)) of 98%. It also gave a pest or weed control at 125 g/ha [3] of 95%.

`Cc1cc(-c2cnc(NCC3CCC3)nc2C(C)C)on1` [Compound 87] showed a pest or weed control at 125 g/ha [1] of 30%, a pest or weed control at 125 g/ha [2] of 80% and a pest or weed control at 125 g/ha (Veronica persica (VERPE)) of 70%. For the same compound, the pest or weed control at 125 g/ha [3] was 50%.

`Cc1cc(-c2cnc(NCc3ccc(F)cc3)nc2C)on1` [Compound 128] was tested, and the pest or weed control at 125 g/ha [1] was 30%, the pest or weed control at 125 g/ha [2] was 30% and the pest or weed control at 125 g/ha (Veronica persica (VERPE)) was 95%. It also gave a pest or weed control at 125 g/ha [3] of 95%.

With `COc1ccc(CNc2ncc(-c3cc(C)no3)c(C3CC3)n2)cc1OC` [Compound 52] the pest or weed control at 500 g/ha [1] was 40%, the pest or weed control at 500 g/ha [2] was 70% and the pest or weed control at 500 g/ha (Veronica persica (VERPE)) was 70%. For the same compound, the pest or weed control at 500 g/ha [3] was 80%.

Work on `Cc1cc(-c2cnc(NCc3cccs3)nc2C2CC2)on1` [Compound 80] yielded a pest or weed control at 500 g/ha [1] of 30%, a pest or weed control at 500 g/ha [2] of 80% and a pest or weed control at 500 g/ha (Veronica persica (VERPE)) of 60%. It also gave a pest or weed control at 500 g/ha [3] of 60%.
